Assays:
Assay in all cases: Ba/F3 drug screening, Cell Titer Glo, IC50 Mut/WT
Assay type in all cases: cell-based
[1] = biological target: T1, EGFR L833F (Homo sapiens, UniProt P00533, L833F); conditions: Classical-Like, 72 hours
T1 construct: expressed in transfected cells; host or cells: Ba/F3 cells, retroviral pBabe-Puro vector
Method: (§1) Data represent the ratio of the IC50 value for a given TKI for cells with a classical-like EGFR mutation to the IC50 value for cells with wildtype EGFR.
(§2) Ba/F3 cell generation, drug screening, and IC50 approximations. Ba/F3 cells were obtained as a gift from Dr. Gordon Mills (MD Anderson Cancer Center), and maintained in RPMI (Sigma) containing 10% FBS, 1% penicillin/streptomycin, and 10 ng/ml recombinant mIL-3 (R&D Biosystems). To establish stable Ba/F3 cell lines, Ba/F3 cells were transduced with retroviruses containing mutant EGFR plasmids for 12-24 hours.
(§3) After 48-72 hours of transduction, 2 μg/ml puromycin (Invitrogen) was added to Ba/F3 cell lines in complete RPMI. To select for EGFR positive cell lines, cells were stained with PE-EGFR (Biolegend) and sorted by FACS. After sorting, EGFR positive cells were maintained in RPMI containing 10% FBS, 1% penicillin/streptomycin, and 1 ng/ml EGF to support cell viability. […] Shortly, cells were plated in 384-well plates (Greiner Bio-One) at 2000-3000 cells per well in technical triplicate. Seven different concentrations of TKIs or DMSO vehicle were added to reach a final volume of 40 μL per well. After 72 hours, 11 μL of Cell Titer Glo (Promega) was added to each well. Plates were incubated for a minimum of 10 minutes, and bioluminescence was determined using a FLUOstar OPTIMA plate reader (BMG LABTECH). Raw bioluminescence values were normalized to DMSO control treated cells, and values were plotted in GraphPad Prism. […] Drug screens were performed in technical triplicate on each plate and either duplicate or triplicate biological replicates.

[2] = biological target: T2, EGFR L833V (Homo sapiens, UniProt P00533, L833V); conditions: Classical-Like, 72 hours
T2 construct: expressed in transfected cells; host or cells: Ba/F3 cells, retroviral pBabe-Puro vector

[3] = biological target: T3, EGFR L858R/V834L (Homo sapiens, UniProt P00533, L858R/V834L); conditions: Classical-Like, 72 hours
T3 construct: expressed in transfected cells; host or cells: Ba/F3 cells, retroviral pBabe-Puro vector

[4] = biological target: T4, EGFR Ex19del (Homo sapiens, UniProt P00533, DEL746-750); conditions: Classical-Like, 72 hours
T4 construct: expressed in transfected cells; host or cells: Ba/F3 cells, retroviral pBabe-Puro vector
Method: as §1, §2, §3

[5] = biological target: T5, EGFR L858R (Homo sapiens, UniProt P00533, L858R); conditions: Classical-Like, 72 hours
T5 construct: expressed in transfected cells; host or cells: Ba/F3 cells, retroviral pBabe-Puro vector

[6] = biological target: T6, EGFR L858R S784F (Homo sapiens, UniProt P00533, L858R/S784F); conditions: Classical-Like, 72 hours
T6 construct: expressed in transfected cells; host or cells: Ba/F3 cells, retroviral pBabe-Puro vector (vector made by GeneScript from EGFR L858R)

[7] = biological target: T7, EGFR L861R (Homo sapiens, UniProt P00533, L861R); conditions: Classical-Like, 72 hours
T7 construct: expressed in transfected cells; host or cells: Ba/F3 cells, retroviral pBabe-Puro vector (vector made by GeneScript from EGFR WT)
Method: as §1, §2, §3

[8] = biological target: T8, EGFR T790M (Homo sapiens, UniProt P00533, T790M); conditions: T790M-like-3S, 72 hours
T8 construct: expressed in transfected cells; host or cells: Ba/F3

[9] = biological target: T9, EGFR G719S T790M (Homo sapiens, UniProt P00533, G719S/T790M); conditions: T790M-like-3S, 72 hours
T9 construct: expressed in transfected cells; host or cells: Ba/F3
Method: Data represent the ratio of the IC50 value for a given TKI for cells with a T790M-like-3S EGFR mutation to the IC50 value for cells with wildtype EGFR.
as §2
(§4) After 48-72 hours of transduction, 2 μg/ml puromycin (Invitrogen) was added to Ba/F3 cell lines in complete RPMI. To select for EGFR positive cell lines, cells were stained with PE-EGFR (Biolegend) and sorted by FACS. After sorting, EGFR positive cells were maintained in RPMI containing 10% FBS, 1% penicillin/streptomycin, and 1 ng/ml EGF to support cell viability. Drug screening was performed as previously described^41,42. Shortly, cells were plated in 384-well plates (Greiner Bio-One) at 2000-3000 cells per well in technical triplicate. Seven different concentrations of TKIs or DMSO vehicle were added to reach a final volume of 40 μL per well. After 72 hours, 11 μL of Cell Titer Glo (Promega) was added to each well. Plates were incubated for a minimum of 10 minutes, and bioluminescence was determined using a FLUOstar OPTIMA plate reader (BMG LABTECH). Raw bioluminescence values were normalized to DMSO control treated cells, and values were plotted in GraphPad Prism. […] Drug screens were performed in technical triplicate on each plate and either duplicate or triplicate biological replicates.

[10] = biological target: T10, EGFR Ex19del T790M L718V (Homo sapiens, UniProt P00533, DEL746-750/L718V/T790M); conditions: T790M-like-3S, 72 hours
T10 construct: expressed in transfected cells; host or cells: Ba/F3

[11] = biological target: T11, EGFR L858R T790M L718V (Homo sapiens, UniProt P00533, L718V/L858R/T790M); conditions: T790M-like-3R, 72 hours
T11 construct: expressed in transfected cells; host or cells: Ba/F3
Method: Data represent the ratio of the IC50 value for a given TKI for cells with a T790M-like-3R EGFR mutation to the IC50 value for cells with wildtype EGFR.
as §2
After 48-72 hours of transduction, 2 μg/ml puromycin (Invitrogen) was added to Ba/F3 cell lines in complete RPMI. To select for EGFR positive cell lines, cells were stained with PE-EGFR (Biolegend) and sorted by FACS. After sorting, EGFR positive cells were maintained in RPMI containing 10% FBS, 1% penicillin/streptomycin, and 1 ng/ml EGF to support cell viability. […] Shortly, cells were plated in 384-well plates (Greiner Bio-One) at 2000-3000 cells per well in technical triplicate. Seven different concentrations of TKIs or DMSO vehicle were added to reach a final volume of 40 μL per well. After 72 hours, 11 μL of Cell Titer Glo (Promega) was added to each well. Plates were incubated for a minimum of 10 minutes, and bioluminescence was determined using a FLUOstar OPTIMA plate reader (BMG LABTECH). Raw bioluminescence values were normalized to DMSO control treated cells, and values were plotted in GraphPad Prism. […] Drug screens were performed in technical triplicate on each plate and either duplicate or triplicate biological replicates. […] Statistical differences between groups were determined by ANOVA as described in the figure legends.

[12] = biological target: T12, EGFR Ex19del/T790M/L792H (Homo sapiens, UniProt P00533, DEL746-750/L792H/T790M); conditions: T790M-like-3R, 72 hours
T12 construct: expressed in transfected cells; host or cells: Ba/F3

[13] = biological target: T13, EGFR Ex19del T790M C797S (Homo sapiens, UniProt P00533, C797S/DEL746-750/T790M); conditions: T790M-like-3R, 72 hours
T13 construct: expressed in transfected cells; host or cells: Ba/F3

[14] = biological target: T14, EGFR E709_T710del insD (Homo sapiens, UniProt P00533, DEL709-709/T710D); conditions: Ba/F3 cells, EGFR E709_T710del insD (PACC), Mut/WT
T14 construct: expressed in transfected cells; host or cells: Ba/F3

[15] = biological target: T15, EGFR G719S (Homo sapiens, UniProt P00533, G719S); conditions: Ba/F3 cells, EGFR G719S (PACC), Mut/WT
T15 construct: expressed in transfected cells; host or cells: Ba/F3

[16] = biological target: T16, EGFR G719A (Homo sapiens, UniProt P00533, G719A); conditions: Ba/F3 cells, EGFR G719A (PACC), Mut/WT
T16 construct: expressed in transfected cells; host or cells: Ba/F3

[17] = biological target: T17, EGFR K757R (Homo sapiens, UniProt P00533, K757R); conditions: Ba/F3 cells, EGFR K757R (PACC), Mut/WT
T17 construct: expressed in transfected cells; host or cells: Ba/F3
Method: (§5) Data represent the ratio of the IC50 value for a given TKI for cells with a PACC EGFR mutation to the IC50 value for cells with wildtype EGFR.
as §2
After 48-72 hours of transduction, 2 μg/ml puromycin (Invitrogen) was added to Ba/F3 cell lines in complete RPMI. To select for EGFR positive cell lines, cells were stained with PE-EGFR (Biolegend) and sorted by FACS. After sorting, EGFR positive cells were maintained in RPMI containing 10% FBS, 1% penicillin/streptomycin, and 1 ng/ml EGF to support cell viability. Drug screening was performed as previously described^41,42. Shortly, cells were plated in 384-well plates (Greiner Bio-One) at 2000-3000 cells per well in technical triplicate. Seven different concentrations of TKIs or DMSO vehicle were added to reach a final volume of 40 μL per well. After 72 hours, 11 μL of Cell Titer Glo (Promega) was added to each well. Plates were incubated for a minimum of 10 minutes, and bioluminescence was determined using a FLUOstar OPTIMA plate reader (BMG LABTECH). Raw bioluminescence values were normalized to DMSO control treated cells, and values were plotted in GraphPad Prism. […] Drug screens were performed in technical triplicate on each plate and either duplicate or triplicate biological replicates. […] Statistical differences between groups were determined by ANOVA as described in the figure legends.

[18] = biological target: T18, EGFR S768I V774M (Homo sapiens, UniProt P00533, S768I/V774M); conditions: Ba/F3 cells, EGFR S768I V774M (PACC), Mut/WT
T18 construct: host or cells: Ba/F3
Method: as §5, §2, §4

[19] = biological target: T19, EGFR R776H (Homo sapiens, UniProt P00533, R776H); conditions: Ba/F3 cells, EGFR R776H (PACC), Mut/WT
T19 construct: host or cells: Ba/F3
Method: as §5, §2, §4

[20] = biological target: T20, EGFR L858R/L792H (Homo sapiens, UniProt P00533, L792H/L858R); conditions: Ba/F3 cells, EGFR L858R/L792H (PACC), Mut/WT
T20 construct: expressed in transfected cells; host or cells: Ba/F3

[21] = biological target: T21, EGFR Ex19del G796S (Homo sapiens, UniProt P00533, DEL746-750/G796S); conditions: Ba/F3 cells, EGFR Ex19del G796S (PACC), Mut/WT
T21 construct: expressed in transfected cells; host or cells: Ba/F3

[22] = biological target: T22, EGFR L858R/C797S (Homo sapiens, UniProt P00533, C797S/L858R); conditions: Ba/F3 cells, EGFR L858R/C797S (PACC), Mut/WT
T22 construct: expressed in transfected cells; host or cells: Ba/F3

[23] = biological target: T23, EGFR L858R G724S (Homo sapiens, UniProt P00533, G724S/L858R); conditions: Ba/F3 cells, EGFR L858R G724S (PACC), Mut/WT
T23 construct: expressed in transfected cells; host or cells: Ba/F3 (retroviral transduction, pBabe-Puro based vectors)
Method: as §5, §2, §4

Row | ratio of IC50 for cells with mutant EGFR to IC50 for cells with wildtype EGFR (Mut/WT) [1] | ratio of IC50 for cells with mutant EGFR to IC50 for cells with wildtype EGFR (Mut/WT) [2] | ratio of IC50 for cells with mutant EGFR to IC50 for cells with wildtype EGFR (Mut/WT) [3] | ratio of IC50 for cells with mutant EGFR to IC50 for cells with wildtype EGFR (Mut/WT) [4] | ratio of IC50 for cells with mutant EGFR to IC50 for cells with wildtype EGFR (Mut/WT) [5] | ratio of IC50 for cells with mutant EGFR to IC50 for cells with wildtype EGFR (Mut/WT) [6] | ratio of IC50 for cells with mutant EGFR to IC50 for cells with wildtype EGFR (Mut/WT) [7] | ratio of IC50 for cells with mutant EGFR to IC50 for cells with wildtype EGFR (Mut/WT) [8] | ratio of IC50 for cells with mutant EGFR to IC50 for cells with wildtype EGFR (Mut/WT) [9] | ratio of IC50 for cells with mutant EGFR to IC50 for cells with wildtype EGFR (Mut/WT) [10] | ratio of IC50 for cells with mutant EGFR to IC50 for cells with wildtype EGFR (Mut/WT) [11] | ratio of IC50 for cells with mutant EGFR to IC50 for cells with wildtype EGFR (Mut/WT) [12] | ratio of IC50 for cells with mutant EGFR to IC50 for cells with wildtype EGFR (Mut/WT) [13] | ratio of the IC50 value for cells with a PACC EGFR mutation to the IC50 value for cells with wildtype EGFR [14] | ratio of the IC50 value for cells with a PACC EGFR mutation to the IC50 value for cells with wildtype EGFR [15] | ratio of the IC50 value for cells with a PACC EGFR mutation to the IC50 value for cells with wildtype EGFR [16] | ratio of the IC50 value for cells with a PACC EGFR mutation to the IC50 value for cells with wildtype EGFR [17] | ratio of the IC50 value for cells with a PACC EGFR mutation to the IC50 value for cells with wildtype EGFR [18] | ratio of the IC50 value for cells with a PACC EGFR mutation to the IC50 value for cells with wildtype EGFR [19] | ratio of the IC50 value for cells with a PACC EGFR mutation to the IC50 value for cells with wildtype EGFR [20] | SMILES | also measured
1 | 0.7284 | 0.4446 | 0.4038 | 0.03035 | 0.1965 | 0.0429 | 0.2335 | 1.125 | 0.1839 | 0.7041 | 19.66 | 1.486 | 56.35 | 0.03063 | 0.3756 | 0.1896 | 0.1894 | 0.5809 | 3.409 | 4.408 | C=CC(=O)Nc1cc(Nc2nccc(-c3c[nH]c4ccccc34)n2)c(OC)cc1N(C)CCN(C)C [AZ5104] | ratio of the IC50 value for cells with a PACC EGFR mutation to the IC50 value for cells with wildtype EGFR [21]: 0.8807; ratio of the IC50 value for cells with a PACC EGFR mutation to the IC50 value for cells with wildtype EGFR [22]: 119.2; ratio of the IC50 value for cells with a PACC EGFR mutation to the IC50 value for cells with wildtype EGFR [23]: 0.001759
2 | 1.233 | 0.1367 | 0.006056 | 0.02859 | 0.0472 | 0.001484 | 0.3102 | 1.315 | 1.302 | 3.032 | 5.796 | 0.885 | 117.8 | 0.0198 | 2.056 | 1.676 | 1.563 | 1.227 | 2.853 | 0.0457 | C=CC(=O)Nc1cc(Nc2ncc(C(=O)OC(C)C)c(-c3cn(C)c4ccccc34)n2)c(OC)cc1N(C)CCN(C)C [TAK-788 (mobocertinib), mobocertinib] | ratio of the IC50 value for cells with a PACC EGFR mutation to the IC50 value for cells with wildtype EGFR [21]: 32.48; ratio of the IC50 value for cells with a PACC EGFR mutation to the IC50 value for cells with wildtype EGFR [22]: 57.42; ratio of the IC50 value for cells with a PACC EGFR mutation to the IC50 value for cells with wildtype EGFR [23]: 0.01089

Source: patent US20240384350A1, “METHODS OF TREATING CANCER WITH KINASE INHIBITORS” (BOARD OF REGENTS, THE UNIVERSITY OF TEXAS SYSTEM, priority 2021, published 2024)
